The record followed here is patent publication US11597702B2, “Substituted pyrazoles FFA4/GPR120 receptor agonists” (AXXAM S.P.A., priority 2018, dated 2023).

Structures are written as SMILES.

A word on the EC50: it is the concentration needed to bring the measured effect to its halfway point.

The assay addresses T1, GPR120 (Homo sapiens, UniProt Q5NUL3).
T1 construct: expressed in transfected cells; host or cells: CHO mitoPhotinaGPR120 cells
T1 sequence (Q5NUL3 1-361): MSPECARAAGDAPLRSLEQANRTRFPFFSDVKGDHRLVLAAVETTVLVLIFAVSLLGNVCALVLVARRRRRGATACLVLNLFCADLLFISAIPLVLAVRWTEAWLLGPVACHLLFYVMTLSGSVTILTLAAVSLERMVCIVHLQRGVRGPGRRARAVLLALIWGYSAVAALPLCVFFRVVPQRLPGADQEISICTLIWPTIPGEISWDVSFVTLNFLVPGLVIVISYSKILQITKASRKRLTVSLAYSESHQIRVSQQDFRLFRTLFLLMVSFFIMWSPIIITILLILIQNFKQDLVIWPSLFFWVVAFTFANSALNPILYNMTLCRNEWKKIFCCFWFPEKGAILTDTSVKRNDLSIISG
As to the kind of experiment: GPR120 agonism in CHO mitoPhotinaGPR120 cell based assay with fluorescent (Fluo-8 calcium, FLIPRTetra) readout, Agonist Mode, dose response. Conditions: CHO mitoPhotinaGPR120 cells, Fluo-8 No Wash Ca2+ dye, dose response in quadruplicate, 0.0033% fatty acid free BSA. Here is the method: Compounds of the invention were tested for GPR120 agonism in a CHO mitoPhotinaGPR120 cell based assay with fluorescent readout in Agonist Mode in dose response in quadruplicate with intra-plate modality.
Twenty (20) h after seeding, growth medium was manually removed and cells were starved in the presence of 25 μL/w of Standard Tyrode's Buffer. After 3 h, cells were loaded with 20 μL/w of 0.5× Fluo-8 No Wash (AAT Bioquest, Inc.) Ca2+ sensitive dye prepared in Standard Tyrode's Buffer. Cells were incubated for 1 h at room temperature in the dark. Ten (10) μL/w 3× of controls and compounds were diluted in Standard Tyrode's Buffer+0.01% fatty acid free BSA (final concentration=0.0033%) and injected at the FLIPRTetra®, recording the kinetic calcium traces for 3 minutes. Standard Tyrode's buffer composition: 5 mM KCl, 130 mM NaCl, 2 mM CaCl2), 5 mM NaHCO3, 1 mM MgCl2, 20 mM HEPES, pH7.4.
Regarding `Cc1nn(-c2ccccc2)c(COc2c(F)cc(CC(C)CO)cc2F)c1C#N` (racemic) [Example 43, 5-[[2,6-difluoro-4-(3-hydroxy-2-methyl-propyl)phenoxy]methyl]-3-methyl-1-phenyl-pyrazole-4-carbonitrile], the EC50 amounted to 0.45 µM.

Consider `Cc1nn(-c2ccccc2)c(COc2ccc(CCC(C)O)cc2)c1C#N` (racemic) [Example 47, 5-[[4-(3-hydroxybutyl)phenoxy]methyl]-3-methyl-1-phenyl-pyrazole-4-carbonitrile], for which the EC50 amounted to 1.65 µM.

On to `Cc1nn(-c2ccccc2)c(COc2c(F)cc(CC(C)CO)cc2F)c1C#N` (single isomer, unassigned; (+)) [Example 43A, (+)-5-[[2,6-difluoro-4-(3-hydroxy-2-methyl-propyl)phenoxy]methyl]-3-methyl-1-phenyl-pyrazole-4-carbonitrile], for which the EC50 amounted to 0.34 µM.

Consider `Cc1nn(-c2ccccc2)c(COc2c(F)cc(CC(C)CO)cc2F)c1C#N` (single isomer, unassigned; (+)) [Example 43B, (+)-5-[[2,6-difluoro-4-(3-hydroxy-2-methyl-propyl)phenoxy]methyl]-3-methyl-1-phenyl-pyrazole-4-carbonitrile], for which the EC50 is 1.69 µM.

Regarding `Cc1nn(-c2ccccc2)c(COc2ccc(CCC(C)O)cc2)c1C#N` (single isomer, unassigned; (+)) [Example 47A, (+)-5-[[4-(3-hydroxybutyl)phenoxy]methyl]-3-methyl-1-phenyl-pyrazole-4-carbonitrile], the concentration giving a half-maximal response (EC50) is 0.5 µM.

As to `Cc1nn(-c2ccccc2)c(COc2ccc(CCC(C)O)cc2)c1C#N` (single isomer, unassigned; (-)) [Example 47B, (−)-5-[[4-(3-hydroxybutyl)phenoxy]methyl]-3-methyl-1-phenyl-pyrazole-4-carbonitrile], the EC50 was 2.36 µM.

For `Cc1nn(-c2ccccc2)c(COc2ccc(C#N)cc2)c1C#N` [Example 1, 5-[(4-cyanophenoxy)methyl]-3-methyl-1-phenyl-pyrazole-4-carbonitrile], the EC50 was 1.29 µM.

For the molecule `Cc1nn(-c2ccccc2)c(COc2ccc(CO)cc2Cl)c1C#N` [Example 2, 5-[[2-chloro-4-(hydroxymethyl)phenoxy]methyl]-3-methyl-1-phenyl-pyrazole-4-carbonitrile], the EC50 was determined as 1.24 µM.

As to `COc1ccc(OCc2c(C#N)c(C)nn2-c2ccccc2)cc1` [Example 3, 5-[(4-methoxyphenoxy)methyl]-3-methyl-1-phenyl-pyrazole-4-carbonitrile], the EC50 was found to be 1.31 µM.

Consider `Cc1ccc(OCc2c(C#N)c(C)nn2-c2ccccc2)cc1` [Example 4, 3-methyl-5-[(4-methylphenoxy)methyl]-1-phenyl-pyrazole-4-carbonitrile], for which the EC50 is 1.67 µM.

As to `Cc1nn(-c2ccccc2)c(COc2ccc(CO)cc2)c1C#N` [Example 5, 5-[[4-(hydroxymethyl)phenoxy]methyl]-3-methyl-1-phenyl-pyrazole-4-carbonitrile], the EC50 was 2.31 µM.

For `Cc1nn(-c2ccccc2)c(COc2ccc(CCO)cc2)c1C#N` [Example 6, 5-[[4-(2-hydroxyethyl)phenoxy]methyl]-3-methyl-1-phenyl-pyrazole-4-carbonitrile], the EC50 amounted to 1.1 µM.

For the molecule `Cc1nn(-c2ccccc2)c(COc2ccccc2)c1C#N` [Example 8, 3-methyl-5-(phenoxymethyl)-1-phenyl-pyrazole-4-carbonitrile], the EC50 is 1.52 µM.

On to `Cc1nn(-c2ccccc2)c(COc2ccc(C#N)cc2F)c1C#N` [Example 10, 5-[(4-cyano-2-fluoro-phenoxy)methyl]-3-methyl-1-phenyl-pyrazole-4-carbonitrile], for which the concentration for a half-maximal effect (EC50) turned out to be 3.39 µM.

Turning to `Cc1nn(-c2ccccc2)c(COc2ccc(CO)c(F)c2F)c1C#N` [Example 14, 5-[[2,3-difluoro-4-(hydroxymethyl)phenoxy]methyl]-3-methyl-1-phenyl-pyrazole-4-carbonitrile], the EC50 was 3.09 µM.

`Cc1cc(CO)ccc1OCc1c(C#N)c(C)nn1-c1ccccc1` [Example 16, 5-[[4-(hydroxymethyl)-2-methyl-phenoxy]methyl]-3-methyl-1-phenyl-pyrazole-4-carbonitrile]: the EC50 worked out at 0.86 µM.

As for `Cc1cc(CO)cc(C)c1OCc1c(C#N)c(C)nn1-c1ccccc1` [Example 17, 5-[[4-(hydroxymethyl)-2,6-dimethyl-phenoxy]methyl]-3-methyl-1-phenyl-pyrazole-4-carbonitrile], the EC50 amounted to 1.01 µM.

As to `Cc1nn(-c2ccccc2)c(COc2ccc(F)cc2)c1C#N` [Example 18, 5-[(4-fluorophenoxy)methyl]-3-methyl-1-phenyl-pyrazole-4-carbonitrile], the half-maximal effective concentration (EC50) worked out at 1.41 µM.

As for `Cc1nn(-c2ccccc2)c(COc2ccc(CO)cc2F)c1C#N` [Example 20, 5-[[2-fluoro-4-(hydroxymethyl)phenoxy]methyl]-3-methyl-1-phenyl-pyrazole-4-carbonitrile], the EC50 is 1.77 µM.

Turning to `Cc1nn(-c2ccccc2)c(COc2c(F)cc(CO)cc2F)c1C#N` [Example 21, 5-[[2,6-difluoro-4-(hydroxymethyl)phenoxy]methyl]-3-methyl-1-phenyl-pyrazole-4-carbonitrile], the EC50 was found to be 1.33 µM.

With `Cc1nn(-c2ccccc2)c(COc2ccccc2CO)c1C#N` [Example 23, 5-[[2-(hydroxymethyl)phenoxy]methyl]-3-methyl-1-phenyl-pyrazole-4-carbonitrile], the EC50 was determined as 8.13 µM.

Regarding `Cc1nn(-c2ccccc2)c(COc2cccc(CO)c2)c1C#N` [Example 24, 5-[[3-(hydroxymethyl)phenoxy]methyl]-3-methyl-1-phenyl-pyrazole-4-carbonitrile], the EC50 is 7.31 µM.

Consider `Cc1cccc(C)c1OCc1c(C#N)c(C)nn1-c1ccccc1` [Example 25, 5-[(2,6-dimethylphenoxy)methyl]-3-methyl-1-phenyl-pyrazole-4-carbonitrile], for which the EC50 came out at 0.94 µM.

Take `Cc1ccccc1OCc1c(C#N)c(C)nn1-c1ccccc1` [Example 26, 3-methyl-5-[(2-methylphenoxy)methyl]-1-phenyl-pyrazole-4-carbonitrile]: the EC50 was determined as 0.58 µM.

For `Cc1nn(-c2ccccc2)c(COc2ccc(CC#N)cc2)c1C#N` [Example 29, 5-[[4-(cyanomethyl)phenoxy]methyl]-3-methyl-1-phenyl-pyrazole-4-carbonitrile], the EC50 came to 4.22 µM.

`Cc1cccc(OCc2c(C#N)c(C)nn2-c2ccccc2)c1C` [Example 30, 5-[(2,3-dimethylphenoxy)methyl]-3-methyl-1-phenyl-pyrazole-4-carbonitrile]: the EC50 was found to be 0.71 µM.

`Cc1nn(-c2ccccc2)c(COc2c(F)cc(CCCO)cc2F)c1C#N` [Example 32, 5-[[2,6-difluoro-4-(3-hydroxypropyl)phenoxy]methyl]-3-methyl-1-phenyl-pyrazole-4-carbonitrile]: the EC50 is 0.09 µM.

As for `Cc1nn(-c2ccccc2)c(COc2ccc(CCO)cc2F)c1C#N` [Example 33, 5-[[2-fluoro-4-(2-hydroxyethyl)phenoxy]methyl]-3-methyl-1-phenyl-pyrazole-4-carbonitrile], the EC50 is 1.27 µM.

As for `Cc1nn(-c2ccccc2)c(COc2ccc(CCCO)cc2)c1C#N` [Example 35, 5-[[4-(3-hydroxypropyl)phenoxy]methyl]-3-methyl-1-phenyl-pyrazole-4-carbonitrile], the EC50 is 0.15 µM.
